The target in one data set is serotonin 2 receptor (Rattus norvegicus, UniProt P14842). Kind of data set: Binding test on [3H] ketanserin (serotonin 2 receptor). The note with it: [3H] ketanserin 0.3 nM, receptor fraction of rat cerebral cortex; read-out: 5HT2.
The next data set has as its target T1, serotonin 1A receptor (Rattus norvegicus, UniProt P19327).
T1 construct: To the receptor fraction of the hippocampus were added a test compound and 0.5 nM of [^3H]; 8-hydroxy-dipropylaminotetralin; from tissue; host or cells: SD rat hippocampus, membrane (receptor) fraction
T1 sequence (P19327 1-422): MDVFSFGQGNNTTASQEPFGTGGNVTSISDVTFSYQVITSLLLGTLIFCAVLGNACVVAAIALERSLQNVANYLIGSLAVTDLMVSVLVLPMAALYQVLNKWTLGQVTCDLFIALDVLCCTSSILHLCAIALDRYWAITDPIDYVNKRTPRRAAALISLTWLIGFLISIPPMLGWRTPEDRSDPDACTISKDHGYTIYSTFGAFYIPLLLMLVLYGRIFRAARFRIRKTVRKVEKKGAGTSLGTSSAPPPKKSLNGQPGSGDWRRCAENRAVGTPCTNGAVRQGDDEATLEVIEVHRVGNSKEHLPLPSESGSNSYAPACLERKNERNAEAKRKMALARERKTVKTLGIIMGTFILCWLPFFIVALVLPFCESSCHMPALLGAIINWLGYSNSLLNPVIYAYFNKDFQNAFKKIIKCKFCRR
Kind of data set: Binding test on [3H] 8-hydroxy-dipropylaminotetralin (serotonin 1A receptor). The note with it: [3H] 8-OH-DPAT 0.5 nM, receptor fraction of rat hippocampus; read-out: 5HT1a.

A further data set has as its target α1 adrenalin receptor. Kind of data set: Binding test on [3H] prazosin (α1 adrenalin receptor). More on the design: species or system rat. To be noted: [3H] prazosin about 0.2 nM, receptor fraction of rat cerebral cortex.

Structures can show the parent of a compound that is named as a salt.

serotonin 2 receptor, sequence (P14842 whole entry): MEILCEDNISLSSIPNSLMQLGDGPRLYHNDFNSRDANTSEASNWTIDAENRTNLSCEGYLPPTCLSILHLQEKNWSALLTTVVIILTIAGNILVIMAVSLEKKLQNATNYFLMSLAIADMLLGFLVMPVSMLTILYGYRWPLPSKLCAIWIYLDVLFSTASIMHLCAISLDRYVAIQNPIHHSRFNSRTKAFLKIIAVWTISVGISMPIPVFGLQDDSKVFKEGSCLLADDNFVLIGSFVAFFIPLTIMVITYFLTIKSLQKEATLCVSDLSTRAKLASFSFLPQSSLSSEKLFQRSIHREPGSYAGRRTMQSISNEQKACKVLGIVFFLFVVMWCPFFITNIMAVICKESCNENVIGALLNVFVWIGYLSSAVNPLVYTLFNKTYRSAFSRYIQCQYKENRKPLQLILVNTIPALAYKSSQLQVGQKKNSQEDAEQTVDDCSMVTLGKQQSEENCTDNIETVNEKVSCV

On to `O=C(CN1CCCCC1)NCc1ccc2ccn(C3CCN(CCc4ccc(F)cc4)CC3)c2c1` (as salt: oxalate) [Example 376, 1-[1-(4-fluorophenethyl)piperidin-4-yl]-6-[(piperidin-1-yl)acetamido]methylindole], for which the melting point (in general, the temperature, or range, at which the solid turns liquid) fell in the range of 113 to 114 °C.
In turn, `CN(C)CCC(=O)NCc1ccc2ccn(C3CCN(CCc4ccc(F)cc4)CC3)c2c1` (as salt: oxalate) [Example 378, 1-[1-(4-fluorophenethyl)piperidin-4-yl]-6-(3-N,N-dimethylaminopropionyl)aminomethylindole] gave a melting point of 104 to 105 °C.
Regarding `O=C(CCN1CCCCC1)NCc1ccc2ccn(C3CCN(CCc4ccc(F)cc4)CC3)c2c1` (as salt: oxalate) [Example 379, 1-[1-(4-fluorophenethyl)piperidin-4-yl]-6-[3-(piperidin-1-yl)propionylamino]methylindole], the melting point lay in the range of 108 to 109 °C.
`O=C(CF)NCc1ccc2ccn(C3CCN(CCc4ccccc4F)CC3)c2c1` (as salt: oxalate) [Example 381, 1-[1-(2-fluorophenethyl)piperidin-4-yl]-6-fluoroacetamidomethylindole] had a melting point of 168 to 169 °C.
In the case of `COc1ccc2c(c1)N(C1CCN(CCc3ccc(F)cc3)CC1)C(C)(C)C2` (as salt: oxalate) [Example 396, 2,2-Dimethyl-1-[1-(4-fluorophenethyl)piperidin-4-yl]-6-methoxyindoline], the melting point was 228 °C (dec.).
As for `O=[N+]([O-])c1ccc(CCN2CCC(N3CCc4ccccc43)CC2)cc1` [Example 29, 1-[1-(4-nitrophenethyl)piperidin-4-yl]indoline], the melting point is 95 to 97 °C. The Ki at serotonin 2 receptor turned out to be 36.5 nM.
The compound `CC(C)NC(=O)Cc1ccc2ccn(C3CCN(CCc4ccc(F)cc4)CC3)c2c1` [Example 286, 1-[1-(4-fluorophenethyl)piperidin-4-yl]-6-(N-isopropylcarbamoylmethyl)indole] gave a melting point of 146 to 148 °C. The Ki on serotonin 2 receptor was determined as 3.12 nM. Besides, the Ki at serotonin 1A receptor was 3.74 nM.
With `CCNC(=O)Cc1ccc2ccn(C3CCN(CCc4ccc(F)cc4)CC3)c2c1` [Example 294, 1-[1-(4-fluorophenethyl)piperidin-4-yl]-6-(ethylcarbamoylmethyl)indole], the melting point is 159.6 to 160.1 °C. Besides, the Ki on α1 adrenalin receptor came to 80.7 nM. Further, on serotonin 2 receptor, the Ki is 2.86 nM. Further, the Ki at serotonin 1A receptor stood at 1.05 nM.
The matching figures for `O=C(Cc1ccc2ccn(C3CCN(CCc4ccc(F)cc4)CC3)c2c1)NC1CC1` [Example 295, 1-[1-(4-fluorophenethyl)piperidin-4-yl]-6-[N-(cyclopropylcarbamoyl)methyl]indole]: 156.4 to 156.8 °C, 195 nM, 3.64 nM and 0.85 nM.
The matching figures for `CC(C)CNC(=O)Cc1ccc2ccn(C3CCN(CCc4ccc(F)cc4)CC3)c2c1` [Example 296, 1-[1-(4-fluorophenethyl)piperidin 4-yl]-6-[N-(isobutylcarbamoyl)methyl]indole]: 131.8 to 132.2 °C, 238 nM, 2.73 nM and 0.32 nM.
For `CCCNC(=O)Cc1ccc2ccn(C3CCN(CCc4ccc(F)cc4)CC3)c2c1` [Example 297, 1-[1-(4-fluorophenethyl)piperidin-4-yl]-6-(n-propylcarbamoylmethyl)indole] the same measures were 131.1 to 131.9 °C, 226 nM, 4.17 nM and 0.98 nM.
In turn, `NC(=O)Cc1ccc2ccn(C3CCN(CCc4ccc(F)cc4F)CC3)c2c1` [Example 299, 1-[1-(2,4-difluorophenethyl)piperidin-4-yl]-6-carbamoylmethylindole] registered a melting point of 156.9 to 157.8 °C. Also, the Ki at serotonin 2 receptor came out at 2.54 nM. Moreover, on serotonin 1A receptor, the Ki worked out at 0.11 nM.
Compound `O=C(Cc1ccc2ccn(C3CCN(CCc4ccc(F)cc4)CC3)c2c1)NCCO` [Example 300, 1-[1-(4-fluorophenethyl)piperidin-4-yl]-6-(2-hydroxyethyl)carbamoylmethylindole] returned a melting point of 140 to 141.2 °C. The compound also yielded a Ki at α1 adrenalin receptor of 225 nM. Besides, the Ki on serotonin 2 receptor came out at 3.55 nM. The Ki on serotonin 1A receptor is 1.73 nM.
Consider `CN(C)C(=O)Cc1ccc2ccn(C3CCN(CCc4ccc(F)cc4)CC3)c2c1.O=C(O)C(=O)O` [Example 301, 1-[1-(4-fluorophenethyl)piperidin-4-yl]-6-dimethylcarbamoylmethylindole Oxalate], for which the melting point was in the range of 170.1 to 170.6 °C. The same compound showed a Ki at α1 adrenalin receptor of 66.9 nM. The Ki on serotonin 2 receptor was determined as 21.9 nM. Besides, the Ki at serotonin 1A receptor was 0.8 nM.
For `O=C(Cc1ccc2ccn(C3CCN(CCc4ccc(F)cc4)CC3)c2c1)N1CCC(O)CC1` [Example 302, 1-[1-(4-fluorophenethyl)piperidin-4-yl]-6-(4-hydroxypiperidin-1-ylcarbonylmethyl)indole] the same measures were 190.5 to 192.2 °C (dec.), 143 nM, 60.5 nM and 2.92 nM.
Regarding `O=C(Cc1ccc2ccn(C3CCN(CCc4ccc(F)cc4)CC3)c2c1)NC(CO)CO.O=C(O)C(=O)O` [Example 304, 1-[1-(4-fluorophenethyl)piperidin-4-yl]-6-(1,3-dihydroxypropan-2-yl)carbamoylmethylindole Oxalate], the melting point is 213.1 to 214.5 °C (dec.). For the same compound, the Ki at α1 adrenalin receptor stood at 141 nM. The Ki at serotonin 2 receptor amounted to 6.26 nM. Moreover, on serotonin 1A receptor, the Ki amounted to 8.37 nM.
The compound `NC(=O)Cc1ccc2ccn(C3CCN(CCc4ccc(F)cc4)CC3)c2c1` [Example 305, 1-[1-(4-fluorophenethyl)piperidin-4-yl]-6-carbamoylmethylindole] gave a melting point of 159.1 to 160.8 °C. This compound also came in with a Ki at α1 adrenalin receptor of 35.9 nM. Also, the Ki at serotonin 2 receptor is 3.29 nM. Besides, the Ki at serotonin 1A receptor is 0.06 nM.
`CN(C)CCNC(=O)Cc1ccc2ccn(C3CCN(CCc4ccc(F)cc4)CC3)c2c1` [Example 307, 1-[1-(4-fluorophenethyl)piperidin-4-yl]-6-(2-dimethylaminoethyl)carbamoylmethylindole] yielded a melting point of 111.8 to 112.9 °C. Besides, the Ki at α1 adrenalin receptor turned out to be 51.5 nM. Moreover, the Ki on serotonin 2 receptor was 0.83 nM. Besides, the Ki on serotonin 1A receptor came out at 7.02 nM.
In the case of `COCCNC(=O)Cc1ccc2ccn(C3CCN(CCc4ccc(F)cc4)CC3)c2c1` [Example 309, 1-[1-(4-fluorophenethyl)piperidin-4-yl]-6-(2-methoxyethyl)carbamoylmethylindole], the melting point was in the range of 113.2 to 114.4 °C. Besides, the Ki on α1 adrenalin receptor amounted to 123 nM. The Ki on serotonin 2 receptor was determined as 1.02 nM. Further, the Ki on serotonin 1A receptor stood at 3.85 nM.
For `O=C(Cc1ccc2ccn(C3CCN(CCc4ccc(F)cc4)CC3)c2c1)NCCF` [Example 310, 1-[1-(4-fluorophenethyl)piperidin-4-yl]-6-(2-fluoroethyl)carbamoylmethylindole] the same measures were 163.3 to 163.8 °C, 84.4 nM, 2.29 nM and 1.34 nM.
Consider `CCS(=O)(=O)Nc1ccc2ccn(C3CCN(CCc4ccc(F)cc4)CC3)c2c1` [Example 335, 1-[1-(4-fluorophenethyl)piperidin-4-yl]-6-(N-methylmethanesulfonylamino)indole], for which the melting point is 192 to 194 °C.
As to `NC(=O)c1ccc2ccn(C3CCN(CCc4ccc(F)cc4)CC3)c2c1` [Example 337, 1-[1-(4-fluorophenethyl)piperidin-4-yl]-6-carbamoylindole], the melting point was 238 to 240 °C. Besides, the Ki on serotonin 2 receptor was over 20 nM. Further, at serotonin 1A receptor, the Ki is under 0.2 nM.
Regarding `NCc1ccc2ccn(C3CCN(CCc4ccccc4F)CC3)c2c1` [Example 348, 1-[1-(2-fluorophenethyl)piperidin-4-yl]-6-aminomethylindole], the melting point fell in the range of 86 to 87 °C.
Consider `CC(=O)NCc1ccc2ccn(C3CCN(CCCCc4ccc(F)cc4)CC3)c2c1` [Example 356, 1-{1-[4-(4-fluorophenyl)butyl]-piperidin-4-yl}-6-acetamidomethylindole], for which the melting point was in the range of 59 to 60 °C. Moreover, on serotonin 2 receptor, the Ki is over 20 nM. Moreover, the Ki at serotonin 1A receptor came out at 1.52 nM.
The compound `O=C(CCl)NCc1ccc2ccn(C3CCN(CCc4ccc(F)cc4)CC3)c2c1` [Example 373, 1-[1-(4-fluorophenethyl)piperidin-4-yl]-6-chloroacetamidomethylindole] displayed a melting point of 143 to 144 °C. The Ki at serotonin 2 receptor was 1.77 nM. On serotonin 1A receptor, the Ki is 0.24 nM.
Turning to `COC(=O)NCc1ccc2ccn(C3CCN(CCc4ccc(F)cc4)CC3)c2c1` [Example 384, 1-[1-(4-fluorophenethyl)piperidin-4-yl]-6-methoxycarbonylaminomethylindole], the melting point was in the range of 117 to 118 °C. Besides, the Ki on serotonin 2 receptor was determined as 0.25 nM. Moreover, the Ki at serotonin 1A receptor was 0.13 nM.
Turning to `CC(=O)NCc1ccc2ccn(C3CCN(CCc4ccc(Br)cc4)CC3)c2c1` [Example 389, 1-[1-(4-bromophenethyl)piperidin-4-yl]-6-acetamidomethylindole], the melting point was in the range of 140 to 141 °C. Moreover, the Ki on serotonin 2 receptor worked out at 15.5 nM. Further, the Ki at serotonin 1A receptor is 0.53 nM.

The record behind these values is patent US6579881B2 (Eisai Co., Ltd., priority 1997, dated 2003).
